Laboratory results as given in US10000452B1, “Quinolone-based compounds, formulations, and uses thereof” (University of South Florida, priority 2016, dated 2018).
In brackets after ≈: the same amount, converted by molar mass. Where two headings read alike, the source gives them in different places.

Key:
[1] = system: malarial strain W2 (pyrimethamine and chloroquine-resistant); experiment: in vitro antimalarial activity against multidrug resistant strain W2; format: cell-based, P. falciparum; details: Plasmodium falciparum
[2] = lipophilicity log D at pH 7.4; format: physicochemical; details: octanol/water
From the text: (§1) Furthermore, to profile the properties of the piperazinyl-4(1H)-quinolones, and to identify potential limitations, aqueous solubility and lipophilicity log D were experimentally determined via LC/MS-based assays as described by the Manetsch laboratory previously^8,10,31,32 (Tables 9-12). Encouragingly, the piperazinyl-4(1H)-quinolones were much more soluble than the previously described phenoxyethoxy-4(1H)-quinolone analogues.^19 As expected, the solubility of all compounds was affected by pH, with better solubility under more acidic conditions.
(§2) In parallel to testing the compounds for in vitro antimalarial activity, a limited structure-property relationship (SPR) study focusing on log D and aqueous solubility was conducted to assess potential physiochemical liabilities (FIG. 22). […] For these reasons, physicochemical properties were not strongly considered as selection criteria for in vivo efficacy studies.

[3] = system: P. berghei sporozoites expressing luciferase; experiment: in vitro liver stage activity, luciferase sporozoites infecting HEPG2 hepatoma cells; format: cell-based; details: Plasmodium berghei
J774 mammalian cells = experiment: cytotoxicity to J774 cells; format: cell-based; details: Mus musculus, J774, read-out: EC50 J774 (μM)
Procedure: This allowed a simplified method for comparing the different assays being simultaneously run. Additionally, each compound was also tested for cytotoxicity using mammalian J774 cell lines in a 96-well plate format.^12-14, 16

Pb-infected mice = experiment: in vivo efficacy scouting assay against blood stages; design: species or system P. berghei; mice; details: single oral 50 mg/kg dose 1 day PI; for activities in these scout assays: result in words
Procedure: The screening involved a single oral 50 mg/kg dose 1 day post infection (PI) and an assessment of parasitemia on days 3 PI and 6 PI (Table 6).
The screening was performed by treating two infected mice with a single 50 mg/kg oral dose of test compound suspended in PEG400 on day 1 postexposure (PE) followed by assessing parasitemia on days 3 and 6 PE.

[4] = aqueous solubility (LC/MS- or HPLC-based assay); format: physicochemical
From the text: as §1, §2

[5] = system: malarial strain TM90-C2B (mefloquine, chloroquine, atovaquone, and pyrimethamine-resistant); experiment: microbe, parasite or virus in culture; format: cell-based, P. falciparum; details: for EC50: Plasmodium falciparum, TM90, read-out: EC50 TM90-C2B (nM); for RI: RI = EC50 TM90-C2B/EC50 W2
From the text: Ideally, the RI of a compound should lie between 0.3 and 3.0 in order to avoid rapidly inducing resistance in the parasite. […]

[6] = aqueous medium, pH 2, simulated gastric fluid, pH 2.0, read-out: Solubility pH 2.0
[7] = aqueous medium, pH 6.5, aqueous buffer, pH 6.5, read-out: Solubility pH 6.5
[8] = aqueous solution, pH 2, simulated gastric fluid, pH 2.0, read-out: Solubility pH 2.0
[9] = aqueous solution, pH 6.5, aqueous buffer, pH 6.5, read-out: Solubility pH 6.5
[10] = aqueous solution (buffer not named), pH 2, simulated gastric fluid, pH 2.0, read-out: Solubility pH 2.0
[11] = aqueous solution (buffer not named), pH 6.5, aqueous buffer, pH 6.5, read-out: Solubility pH 6.5

| Compound | EC50 ([1]; read-out: EC50 W2 (nM)) | chromatographic logD [2] | EC50 ([3]; HEPG2 cells) | EC50 (J774 mammalian cells) | inhibition in vivo at 50 mg/kg (Pb-infected mice; Plasmodium berghei, 144 h, vs untreated animals, read-out: % Inhibition Day 6 PI) | solubility [4, 6] | solubility [4, 7] | Solubility pH 2.0 (μM) ([4]; pH 2.0) | Solubility pH 6.5 (μM) ([4]; pH 6.5) | % Inhibition Day 6 PI (Pb-infected mice; vs untreated animals) | EC50 [5] | RI [5] | activities in these scout assays (Pb-infected mice) | solubility [4, 8] | solubility [4, 9] | EC50 ([3]; HepG2, text values printed in pM) | solubility [4, 10] | solubility [4, 11] | EC50 ([1]; read-out: EC50 W2) |
| --- | --- | --- | --- | --- | --- | --- | --- | --- | --- | --- | --- | --- | --- | --- | --- | --- | --- | --- | --- |
| COC(=O)c1c[nH]c2cc(N3CCN(Cc4ccccc4)CC3)ccc2c1=O [Compound 8b, Methyl 7-(4-benzylpiperazin-1-yl)-4-oxo-1,4-dihydroquinoline-3-carboxylate] | 16.2 nM | 2.21 | 84500 pM | > 20 µM | ~40% | 60 to 80 µM (≈ 22.6 to 30.2 µg/mL) | 60 to 80 µM (≈ 22.6 to 30.2 µg/mL) | 60-79.9 μM | 60-79.9 μM | – | – | – | – | – | – | – | – | – | – |
| COC(=O)c1c[nH]c2cc(CN3CCN(Cc4ccc(OC)cc4)CC3)c(C)cc2c1=O [Compound 8s, Methyl 7-((4-(4-methoxybenzyl)piperazin-1-yl)methyl)-6-methyl-4-oxo-1,4-dihydroquinoline-3-carboxylate] | 2.4 nM | 2.03 | – | > 20 µM | – | ≥ 80 µM | ≥ 80 µM | – | – | little to moderate protection | 1020 nM | 426 | – | – | – | – | – | – | – |
| COC(=O)c1c[nH]c2cc(CN3CCN(c4ccc(OC)cc4)CC3)c(OC)cc2c1=O [Compound 8z, Methyl 6-methoxy-7-((4-(4-methoxyphenyl)piperazin-1-yl)methyl)-4-oxo-1,4-dihydroquinoline-3-carboxylate] | 3.38 nM | 2.19 | 10400 pM | 15.7 µM | – | – | – | – | – | 70.6% | 861 nM | – | excellent activities | ≥ 80 µM | ≥ 80 µM | – | – | – | – |
| COC(=O)c1c[nH]c2cc(CN3CCN(c4ccc(OC)cc4)CC3)ccc2c1=O [Compound 8n, Methyl 7-((4-(4-methoxyphenyl)piperazin-1-yl)methyl)-4-oxo-1,4-dihydroquinoline-3-carboxylate] | 3.56 nM | 2.11 | 123 pM | – | – | – | – | – | – | little to moderate protection | 222 nM | – | – | ≥ 80 µM | 40 to 59.9 µM (≈ 16.3 to 24.4 µg/mL) | 123 pM | – | – | – |
| COC(=O)c1c[nH]c2cc(N3CCN(c4ccccc4)CC3)c(OC)cc2c1=O [Compound 8d, Methyl 6-methoxy-4-oxo-7-(4-phenylpiperazin-1-yl)-1,4-dihydroquinoline-3-carboxylate] | 37.2 nM | 2.64 | – | 16.8 µM | – | ≥ 80 µM | 1 to 19.9 µM (≈ 0.393 to 7.83 µg/mL) | – | – | little to moderate protection | – | – | – | – | – | – | – | – | – |
| COC(=O)c1c[nH]c2cc(CN3CCN(c4ccc(F)cc4)CC3)c(OC)cc2c1=O [Compound 8aa, Methyl 7-((4-(4-fluorophenyl)piperazin-1-yl)methyl)-6-methoxy-4-oxo-1,4-dihydroquinoline-3-carboxylate] | 1.79 nM | 1.31 | 32300 pM | > 20 µM | – | – | – | – | – | 56.9% | 218 nM | – | excellent activities | 60 to 79.9 µM (≈ 25.5 to 34 µg/mL) | ≥ 80 µM | – | – | – | – |
| COC(=O)c1c[nH]c2ccc(CN3CCN(c4ccc(C(F)(F)F)cc4)CC3)cc2c1=O [Compound 8ai, Methyl 4-oxo-6-((4-(4-(trifluoromethyl)phenyl)piperazin-1-yl)methyl)-1,4-dihydroquinoline-3-carboxylate] | 45.2 nM | 3.01 | 85000 pM | > 20 µM | – | – | – | – | – | – | 2900 nM | 64.2 | – | – | – | – | ≥ 80 µM | 1 to 19.9 µM (≈ 0.445 to 8.86 µg/mL) | – |
| COC(=O)c1c[nH]c2cc(N3CCN(c4ccccc4)CC3)ccc2c1=O [Compound 8a, Methyl 4-oxo-7-(4-phenylpiperazin-1-yl)-1,4-dihydroquinoline-3-carboxylate] | 4.45 nM | 2.58 | 74100 pM | > 20 µM | – | 1 to 19.9 µM (≈ 0.363 to 7.23 µg/mL) | – | – | – | little to moderate protection | – | – | – | – | – | – | – | – | – |
| O=c1c(Cl)c[nH]c2cc(CN3CCN(c4ccc(F)cc4)CC3)ccc12 [Compound 8al, 3-Chloro-7-((4-(4-fluorophenyl)piperazin-1-yl)methyl)quinolin-4(1H)-one] | 1060 nM | 2.57 | – | > 20 µM | – | – | – | – | – | 71.9% | 2290 nM | – | excellent activities | – | – | – | ≥ 80 µM | 40 to 59.9 µM (≈ 14.9 to 22.3 µg/mL) | – |
| COC(=O)c1c[nH]c2cc(N3CCN(Cc4ccccc4)CC3)c(C)cc2c1=O [Compound 8g, Methyl 7-(4-benzylpiperazin-1-yl)-6-methyl-4-oxo-1,4-dihydroquinoline-3-carboxylate] | 13.2 nM | 2.37 | > 100000 pM | > 20 µM | – | ≥ 80 µM | ≥ 80 µM | – | – | – | 982 nM | 74.4 | – | – | – | – | – | – | – |
| COC(=O)c1c[nH]c2cc(CN3CCN(c4ccc(OC)cc4)CC3)c(C)cc2c1=O [Compound 8t, Methyl 7-((4-(4-methoxyphenyl)piperazin-1-yl)methyl)-6-methyl-4-oxo-1,4-dihydroquinoline-3-carboxylate] | 0.575 nM | 2.61 | 4110 pM | > 20 µM | – | – | – | – | – | – | 177 nM | 308 | – | ≥ 80 µM | 20 to 39.9 µM (≈ 8.43 to 16.8 µg/mL) | – | – | – | – |
| COC(=O)c1c[nH]c2cc(N3CCN(c4ccc(OC)cc4)CC3)c(OC)cc2c1=O [Compound 8f, Methyl 6-methoxy-7-(4-(4-methoxyphenyl)piperazin-1-yl)-4-oxo-1,4-dihydroquinoline-3-carboxylate] | 42.9 nM | 2.48 | > 100000 pM | > 20 µM | – | – | – | – | – | – | 1980 nM | 46.2 | – | 60 to 79.9 µM (≈ 25.4 to 33.8 µg/mL) | 20 to 39.9 µM (≈ 8.47 to 16.9 µg/mL) | – | – | – | – |
| COC(=O)c1c[nH]c2cc(N3CCN(c4ccccc4)CC3)c(C)cc2c1=O [Compound 8c, Methyl 6-methyl-4-oxo-7-(4-phenylpiperazin-1-yl)-1,4-dihydroquinoline-3-carboxylate] | 45.5 nM | 2.31 | – | 16.7 µM | – | ≥ 80 µM | 40 to 59.9 µM (≈ 15.1 to 22.6 µg/mL) | – | – | little to moderate protection | 1110 nM | – | – | – | – | – | – | – | – |
| COC(=O)c1c[nH]c2cc(CCN3CCN(Cc4ccccc4)CC3)ccc2c1=O [Compound 8ad, Methyl 7-(2-(4-benzylpiperazin-1-yl)ethyl)-4-oxo-1,4-dihydroquinoline-3-carboxylate] | 116 nM | 1.72 | 157000 pM | > 20 µM | – | ≥ 80 µM | ≥ 80 µM | – | – | – | 6170 nM | – | – | – | – | – | – | – | – |
| COC(=O)c1c[nH]c2cc(CN3CCN(c4ccc(F)cc4)CC3)c(C)cc2c1=O [Compound 8u, Methyl 7-((4-(4-fluorophenyl)piperazin-1-yl)methyl)-6-methyl-4-oxo-1,4-dihydroquinoline-3-carboxylate] | 0.843 nM | 2.9 | 2640 pM | 15.7 µM | – | – | – | – | – | – | 348 nM | – | – | ≥ 80 µM | 40 to 59.9 µM (≈ 16.4 to 24.5 µg/mL) | – | – | – | 0.843 nM |
| COC(=O)c1c[nH]c2ccc(CN3CCN(c4ccccc4)CC3)cc2c1=O [Compound 8af, Methyl 4-oxo-6-((4-phenylpiperazin-1-yl)methyl)-1,4-dihydroquinoline-3-carboxylate] | 151 nM | 2.03 | 90500 pM | > 20 µM | – | – | – | – | – | – | 3200 nM | 21.2 | – | – | – | – | ≥ 80 µM | 20 to 39.9 µM (≈ 7.55 to 15.1 µg/mL) | – |
| COC(=O)c1c[nH]c2cc(N3CCN(c4ccc(OC)cc4)CC3)ccc2c1=O [Compound 8e, Methyl 7-(4-(4-methoxyphenyl)piperazin-1-yl)-4-oxo-1,4-dihydroquinoline-3-carboxylate] | 7.76 nM | 2.44 | – | > 20 µM | – | – | – | – | – | – | 154 nM | 19.8 | – | 40 to 59.9 µM (≈ 15.7 to 23.6 µg/mL) | 20 to 39.9 µM (≈ 7.87 to 15.7 µg/mL) | – | – | – | – |
